System: 519858-162-T-J1-PDC complex spheroid growth, % test/control
Assay: Anticancer human tumor 519858-162-T-J1-PDC patient-derived colon adenocarcinoma cell line growth inhibition [Asc]
Settings: for IC50: curve of first compound; for viability, T/C: stronger effect = lower value; active means viability on the fitted dose curve at most 10% of control; inactive means the rest
Procedure, shortened: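 Stromal components (HUVEC and hMSC) are co-assembled with the cancer cells into multicellular spheroids. Drugs are then added singly or paired, at concentrations falling by half-log increments from a clinically achievable maximum, capped at 10 microM without known Cmax.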
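Further: seven day drug exposure begun three days after spheroid seeding.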
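Wherever viability, T/C is given: 100% = DMSO vehicle wells and lower values mean less viable spheroid.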

NC1CCC(NC2CC2c2ccccc2)CC1 (configuration not stated) + CCN1C(C(=O)NC23CCC(C(=O)O)(CC2)CC3)C(c2cccc(Cl)c2F)C2(C(=O)Nc3cc(Cl)ccc32)C12CCCCC2
> 100 nM: IC50 (second compound 0.00949 µM) | IC50 (second compound 0.03 µM) | IC50 (second compound 0.0949 µM) | IC50 (second compound 0.3 µM) | IC50 (second compound 0.949 µM) | IC50 (second compound 3 µM)
inactive: viability, T/C (second compound 0.00949 µM, first compound 0.000316 µM) 101% | viability, T/C (second compound 0.00949 µM, first compound 0.001 µM) 129% | viability, T/C (second compound 0.00949 µM, first compound 0.00316 µM) 130% | viability, T/C (second compound 0.00949 µM, first compound 0.01 µM) 112% | viability, T/C (second compound 0.00949 µM, first compound 0.0316 µM) 107% | viability, T/C (second compound 0.00949 µM, first compound 0.1 µM) 92.4% | viability, T/C (second compound 0.03 µM, first compound 0.000316 µM) 146% | viability, T/C (second compound 0.03 µM, first compound 0.001 µM) 149% | viability, T/C (second compound 0.03 µM, first compound 0.00316 µM) 101% | viability, T/C (second compound 0.03 µM, first compound 0.01 µM) 84.1% | viability, T/C (second compound 0.03 µM, first compound 0.0316 µM) 70.2% | viability, T/C (second compound 0.03 µM, first compound 0.1 µM) 110% | viability, T/C (second compound 0.0949 µM, first compound 0.000316 µM) 136% | viability, T/C (second compound 0.0949 µM, first compound 0.001 µM) 127% | viability, T/C (second compound 0.0949 µM, first compound 0.00316 µM) 136% | viability, T/C (second compound 0.0949 µM, first compound 0.01 µM) 124% | viability, T/C (second compound 0.0949 µM, first compound 0.0316 µM) 128% | viability, T/C (second compound 0.0949 µM, first compound 0.1 µM) 107% | viability, T/C (second compound 0.3 µM, first compound 0.000316 µM) 101% | viability, T/C (second compound 0.3 µM, first compound 0.001 µM) 82% | viability, T/C (second compound 0.3 µM, first compound 0.00316 µM) 99.6% | viability, T/C (second compound 0.3 µM, first compound 0.01 µM) 95.7% | viability, T/C (second compound 0.3 µM, first compound 0.0316 µM) 95.4% | viability, T/C (second compound 0.3 µM, first compound 0.1 µM) 129% | viability, T/C (second compound 0.949 µM, first compound 0.000316 µM) 97.5% | viability, T/C (second compound 0.949 µM, first compound 0.001 µM) 83.1% | viability, T/C (second compound 0.949 µM, first compound 0.00316 µM) 117% | viability, T/C (second compound 0.949 µM, first compound 0.01 µM) 89.1% | viability, T/C (second compound 0.949 µM, first compound 0.0316 µM) 89.9% | viability, T/C (second compound 0.949 µM, first compound 0.1 µM) 91% | viability, T/C (second compound 3 µM, first compound 0.000316 µM) 66.9% | viability, T/C (second compound 3 µM, first compound 0.001 µM) 86.8% | viability, T/C (second compound 3 µM, first compound 0.00316 µM) 74.4% | viability, T/C (second compound 3 µM, first compound 0.01 µM) 66.3% | viability, T/C (second compound 3 µM, first compound 0.0316 µM) 74.3% | viability, T/C (second compound 3 µM, first compound 0.1 µM) 89.2%

From PubChem BioAssay AID1963421 (Molecular Pharmacology Branch, DTP, NCI, 2024)
